Assays:
Assay type in all cases: in vivo
[1] = test system: Echinochloa crus-galli var. formosensis; assay: Test Example 6: herbicidal effect test by application during growth period of paddy rice (low dose); conditions: Echinochloa crus-galli; 7.5 g per 10 ares; applied seven days after sowing, flooded pots; 14 days after application; read-out: weed inhibition rate
Summary of the method: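 Paddy soil in flooded Wagner pots (about 3 cm water), weeds sown at 0–1 cm, 30 seeds each, grown in a glass greenhouse. Seven days after sowing, water-diluted emulsifiable concentrate was dropped into the water at 7.5 g active ingredient per 10 ares. Weed inhibition rate (%) was scored 14 days after application, in duplicate.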

[2] = test system: Echinochloa crus-galli var. formosensis; assay: Test Example 5: herbicidal effect test by soil application in paddy rice (low dose); conditions: Echinochloa crus-galli, soil, 336 h; 7.5 g per 10 ares; applied immediately after sowing, flooded pots; 14 days after application; read-out: weed inhibition rate
Summary of the method: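 Pre-emergence paddy test: seeds sown 0–1 cm (30 each), pots flooded ~3 cm, greenhouse. EC dilution dropped into water right after sowing, 7.5 g a.i./10 a. Duplicate pots; weed inhibition rate (%) by formula, day 14.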

Digitaria ciliaris [3] = assay: Test Example 3: herbicidal effect test by soil application in upland field; conditions: Digitaria ciliaris, 120 g per 10 ares, sprayed one day after sowing, 14 days after application, read-out: weed inhibition rate
Summary of the method: (§1)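 Pre-emergence test: seeds mixed into top 1 cm of alluvial loam upland soil in pots; emulsifiable concentrate diluted in water sprayed on soil one day after sowing at 100 L/10 a, 120 g a.i./10 a. Weed inhibition rate (%) scored at 14 days, in duplicate.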

Echinochloa crus-galli [4] = assay: as above; conditions: Echinochloa crus-galli, 120 g per 10 ares, sprayed one day after sowing, 14 days after application, read-out: weed inhibition rate
Summary of the method: as §1

Echinochloa crus-galli [5] = assay: Test Example 4: herbicidal effect test by stem and leaf treatment in upland field; conditions: Echinochloa crus-galli; 120 g per 10 ares; sprayed seven days after sowing, upland soil; 14 days after application; read-out: weed inhibition rate
Digitaria ciliaris [6] = assay: Test Example 7: herbicidal effect test by soil application in upland field (low dose); conditions: Digitaria ciliaris, 7.5 g per 10 ares, sprayed one day after sowing, 14 days after application, read-out: weed inhibition rate
Summary of the method: (§2)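 Read-out: weed inhibition rate (%) at 14 d post-treatment, duplicate pots per concentration. Seeds sown in the top 1 cm of upland alluvial loam; emulsifiable concentrate diluted in water and sprayed on the soil surface 1 d after sowing at 7.5 g a.i./10 a (100 L/10 a spray volume).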

Echinochloa crus-galli [7] = assay: as above; conditions: Echinochloa crus-galli, 7.5 g per 10 ares, sprayed one day after sowing, 14 days after application, read-out: weed inhibition rate
Summary of the method: as §2

Digitaria ciliaris [8] = assay: Test Example 8: herbicidal effect test by stem and leaf treatment in upland field (low dose); conditions: Digitaria ciliaris; 7.5 g per 10 ares; sprayed seven days after sowing, upland soil; 14 days after application; read-out: weed inhibition rate
Echinochloa crus-galli [9] = assay: as above; conditions: Echinochloa crus-galli; 7.5 g per 10 ares; sprayed seven days after sowing, upland soil; 14 days after application; read-out: weed inhibition rate
[10] = test system: Echinochloa crus-galli var. formosensis; assay: Test Example 2: herbicidal effect test by application during growth period of paddy rice; conditions: Echinochloa crus-galli; 120 g per 10 ares; applied seven days after sowing, flooded pots; 14 days after application; read-out: weed inhibition rate
Summary of the method: (§3)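 Flooded paddy pot test, greenhouse. Seeds 30/species, 0–1 cm depth, water ~3 cm. EC diluted in water, dropper-applied 7 d post-sowing at 120 g a.i./10 a. Inhibition rate (%) read 14 d after treatment; n=2.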

Scirpus juncoides [11] = assay: as above; conditions: Schoenoplectiella juncoides; 120 g per 10 ares; applied seven days after sowing, flooded pots; 14 days after application; read-out: weed inhibition rate
Summary of the method: as §3

[12] = test system: Echinochloa crus-galli var. formosensis; assay: Test Example 1: herbicidal effect test by soil application in paddy rice; conditions: Echinochloa crus-galli, soil, 336 h; 120 g active ingredient per 10 ares; applied immediately after sowing, flooded pots; 14 days after application; read-out: weed inhibition rate
Summary of the method: (§4)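 Weeds sown 0–1 cm deep (30 seeds each) into fertilized, puddled paddy soil in Wagner pots. Pots are flooded immediately, water held near 3 cm, and the diluted emulsifiable concentrate is dripped in at once, delivering 120 g active ingredient per 10 ares under glass-greenhouse management.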

Scirpus juncoides [13] = assay: as above; conditions: Schoenoplectiella juncoides, soil, 336 h; 120 g active ingredient per 10 ares; applied immediately after sowing, flooded pots; 14 days after application; read-out: weed inhibition rate
Summary of the method: as §4

Digitaria ciliaris [14] = assay: Test Example 4: herbicidal effect test by stem and leaf treatment in upland field; conditions: Digitaria ciliaris; 120 g per 10 ares; sprayed seven days after sowing, upland soil; 14 days after application; read-out: weed inhibition rate

CC(C)=CCO[C@@H]1C[C@@]2(C(C)C)C=C[C@]1(C)O2 [3-693, (1R,4S,5R)-1-isopropyl-4-methyl-5-(3-methylbut-2-enoxy)-7-oxabicyclo[2.2.1]hept-2-ene]
≥ 80%: inhibition at 75 g/ha [1] | inhibition at 75 g/ha [2] | inhibition at 1200 g/ha (Digitaria ciliaris [3]) | inhibition at 1200 g/ha (Echinochloa crus-galli [4]) | inhibition at 1200 g/ha (Echinochloa crus-galli [5]) | inhibition at 75 g/ha (Digitaria ciliaris [6]) | inhibition at 75 g/ha (Echinochloa crus-galli [7]) | inhibition at 75 g/ha (Digitaria ciliaris [8]) | inhibition at 75 g/ha (Echinochloa crus-galli [9]) | inhibition at 1200 g/ha [10] | inhibition at 1200 g/ha (Scirpus juncoides [11]) | pest or weed control at 1200 g/ha [12] | pest or weed control at 1200 g/ha (Scirpus juncoides [13]) | inhibition at 1200 g/ha (Digitaria ciliaris [14])

CC(C)[C@]12C=C[C@](C)(O1)[C@H](OCC1CCCCC1)C2 [3-697, (1R,4S,5R)-5-(cyclohexylmethoxy)-1-isopropyl-4-methyl-7-oxabicyclo[2.2.1]hept-2-ene]
≥ 80%: inhibition at 75 g/ha [1] | inhibition at 75 g/ha [2] | inhibition at 1200 g/ha (Digitaria ciliaris [3]) | inhibition at 1200 g/ha (Echinochloa crus-galli [4]) | inhibition at 1200 g/ha (Echinochloa crus-galli [5]) | inhibition at 75 g/ha (Digitaria ciliaris [6]) | inhibition at 75 g/ha (Echinochloa crus-galli [7]) | inhibition at 75 g/ha (Digitaria ciliaris [8]) | inhibition at 75 g/ha (Echinochloa crus-galli [9]) | inhibition at 1200 g/ha [10] | inhibition at 1200 g/ha (Scirpus juncoides [11]) | pest or weed control at 1200 g/ha [12] | pest or weed control at 1200 g/ha (Scirpus juncoides [13]) | inhibition at 1200 g/ha (Digitaria ciliaris [14])

CC(C)C12C=CC(C)(O1)C(OCc1ccccc1)C2 (stereo not drawn) [3-752, 4-methyl-5-phenylmethoxy-1-isopropyl-7-oxabicyclo[2.2.1]hept-2-ene]
≥ 80%: inhibition at 75 g/ha [1] | inhibition at 75 g/ha [2] | inhibition at 1200 g/ha (Digitaria ciliaris [3]) | inhibition at 1200 g/ha (Echinochloa crus-galli [4]) | inhibition at 1200 g/ha (Echinochloa crus-galli [5]) | inhibition at 75 g/ha (Digitaria ciliaris [6]) | inhibition at 75 g/ha (Echinochloa crus-galli [7]) | inhibition at 75 g/ha (Digitaria ciliaris [8]) | inhibition at 75 g/ha (Echinochloa crus-galli [9]) | inhibition at 1200 g/ha [10] | inhibition at 1200 g/ha (Scirpus juncoides [11]) | pest or weed control at 1200 g/ha [12] | pest or weed control at 1200 g/ha (Scirpus juncoides [13]) | inhibition at 1200 g/ha (Digitaria ciliaris [14])

CC(C)C12C=CC(C)(O1)C(OCc1ccccc1F)C2 (stereo not drawn) [3-754, 5-[(2-fluorophenyl)methoxy]-4-methyl-1-isopropyl-7-oxabicyclo[2.2.1]hept-2-ene]
≥ 80%: inhibition at 75 g/ha [1] | inhibition at 75 g/ha [2] | inhibition at 1200 g/ha (Digitaria ciliaris [3]) | inhibition at 1200 g/ha (Echinochloa crus-galli [4]) | inhibition at 1200 g/ha (Echinochloa crus-galli [5]) | inhibition at 75 g/ha (Digitaria ciliaris [6]) | inhibition at 75 g/ha (Echinochloa crus-galli [7]) | inhibition at 75 g/ha (Digitaria ciliaris [8]) | inhibition at 75 g/ha (Echinochloa crus-galli [9]) | inhibition at 1200 g/ha [10] | inhibition at 1200 g/ha (Scirpus juncoides [11]) | pest or weed control at 1200 g/ha [12] | pest or weed control at 1200 g/ha (Scirpus juncoides [13]) | inhibition at 1200 g/ha (Digitaria ciliaris [14])

CC(C)C12C=CC(C)(O1)C(OCc1ccccn1)C2 (stereo not drawn) [3-755, 2-[(1-methyl-4-isopropyl-7-oxabicyclo[2.2.1]hept-5-en-2-yl)oxymethyl]pyridine]
≥ 80%: inhibition at 75 g/ha [1] | inhibition at 75 g/ha [2] | inhibition at 1200 g/ha (Digitaria ciliaris [3]) | inhibition at 1200 g/ha (Echinochloa crus-galli [4]) | inhibition at 1200 g/ha (Echinochloa crus-galli [5]) | inhibition at 75 g/ha (Digitaria ciliaris [6]) | inhibition at 75 g/ha (Echinochloa crus-galli [7]) | inhibition at 75 g/ha (Digitaria ciliaris [8]) | inhibition at 75 g/ha (Echinochloa crus-galli [9]) | inhibition at 1200 g/ha [10] | inhibition at 1200 g/ha (Scirpus juncoides [11]) | pest or weed control at 1200 g/ha [12] | pest or weed control at 1200 g/ha (Scirpus juncoides [13]) | inhibition at 1200 g/ha (Digitaria ciliaris [14])

CC(C)C12C=CC(C)(O1)C(OCc1cccs1)C2 (stereo not drawn) [3-756, 1-isopropyl-4-methyl-5-(2-thienylmethoxy)-7-oxabicyclo[2.2.1]hept-2-ene]
≥ 80%: inhibition at 75 g/ha [1] | inhibition at 75 g/ha [2] | inhibition at 1200 g/ha (Digitaria ciliaris [3]) | inhibition at 1200 g/ha (Echinochloa crus-galli [4]) | inhibition at 1200 g/ha (Echinochloa crus-galli [5]) | inhibition at 75 g/ha (Digitaria ciliaris [6]) | inhibition at 75 g/ha (Echinochloa crus-galli [7]) | inhibition at 75 g/ha (Digitaria ciliaris [8]) | inhibition at 75 g/ha (Echinochloa crus-galli [9]) | inhibition at 1200 g/ha [10] | inhibition at 1200 g/ha (Scirpus juncoides [11]) | pest or weed control at 1200 g/ha [12] | pest or weed control at 1200 g/ha (Scirpus juncoides [13]) | inhibition at 1200 g/ha (Digitaria ciliaris [14])
